Active and inactive are the calls of the source. No cut-off for these calls is given here.
Columns and labels:
HEK293 = experiment: Selectivity ratio of EC50 for human mGlu5 receptor expressed in HEK293 cells to EC50 for rat mGlu5 receptor expressed in HEK293 cells; assay type: cell-based
[1] = biological target: Metabotropic glutamate receptor 5 (Rattus norvegicus) (UniProt P31424); experiment: Ago-positive allosteric modulation of rat mGlu5 receptor expressed in HEK293 cells by fluorescence-based calcium flux assay relative to glutamate; assay type: functional, cell-based
[2] = biological target: T1, Metabotropic glutamate receptor 5 (Rattus norvegicus, UniProt P31424); experiment: Ago-positive allosteric modulation of rat mGlu5 receptor expressed in HEK293 cells by fluorescence-based calcium flux assay; assay type: functional, cell-based
Liver microsomes = experiment: Metabolic stability in rat liver microsomes assessed as compound remaining at 1 uM after 15 mins in presence of NADPH; assay type: ADME, Microsome; settings: 0.25 h
Plasma [3] = experiment: (§1) Fraction unbound in rat plasma at 5 uM after 4 hrs by equilibrium dialysis method; assay type: ADME, cell-free; settings: 4 h, 5 µM
Plasma [4] = experiment: (§2) Fraction unbound in human plasma at 5 uM after 4 hrs by equilibrium dialysis method; assay type: ADME, cell-free; settings: 4 h, 5 µM
[5] = biological target: Metabotropic glutamate receptor 4 (Homo sapiens) (UniProt Q14833); experiment: Positive allosteric modulation of mGluR4
[6] = biological target: Metabotropic glutamate receptor 2 (Homo sapiens) (UniProt Q14416); experiment: Positive allosteric modulation of mGluR2
[7] = Inhibition of sodium channel
[8] = biological target: T2, Metabotropic glutamate receptor 5 (Homo sapiens, UniProt P41594); experiment: Positive allosteric modulation of human mGlu5 receptor expressed in HEK293 cells by fluorescence-based calcium flux assay relative to glutamate; assay type: functional, cell-based
Target sequence in this assay (P41594 21-1212 limits assumed): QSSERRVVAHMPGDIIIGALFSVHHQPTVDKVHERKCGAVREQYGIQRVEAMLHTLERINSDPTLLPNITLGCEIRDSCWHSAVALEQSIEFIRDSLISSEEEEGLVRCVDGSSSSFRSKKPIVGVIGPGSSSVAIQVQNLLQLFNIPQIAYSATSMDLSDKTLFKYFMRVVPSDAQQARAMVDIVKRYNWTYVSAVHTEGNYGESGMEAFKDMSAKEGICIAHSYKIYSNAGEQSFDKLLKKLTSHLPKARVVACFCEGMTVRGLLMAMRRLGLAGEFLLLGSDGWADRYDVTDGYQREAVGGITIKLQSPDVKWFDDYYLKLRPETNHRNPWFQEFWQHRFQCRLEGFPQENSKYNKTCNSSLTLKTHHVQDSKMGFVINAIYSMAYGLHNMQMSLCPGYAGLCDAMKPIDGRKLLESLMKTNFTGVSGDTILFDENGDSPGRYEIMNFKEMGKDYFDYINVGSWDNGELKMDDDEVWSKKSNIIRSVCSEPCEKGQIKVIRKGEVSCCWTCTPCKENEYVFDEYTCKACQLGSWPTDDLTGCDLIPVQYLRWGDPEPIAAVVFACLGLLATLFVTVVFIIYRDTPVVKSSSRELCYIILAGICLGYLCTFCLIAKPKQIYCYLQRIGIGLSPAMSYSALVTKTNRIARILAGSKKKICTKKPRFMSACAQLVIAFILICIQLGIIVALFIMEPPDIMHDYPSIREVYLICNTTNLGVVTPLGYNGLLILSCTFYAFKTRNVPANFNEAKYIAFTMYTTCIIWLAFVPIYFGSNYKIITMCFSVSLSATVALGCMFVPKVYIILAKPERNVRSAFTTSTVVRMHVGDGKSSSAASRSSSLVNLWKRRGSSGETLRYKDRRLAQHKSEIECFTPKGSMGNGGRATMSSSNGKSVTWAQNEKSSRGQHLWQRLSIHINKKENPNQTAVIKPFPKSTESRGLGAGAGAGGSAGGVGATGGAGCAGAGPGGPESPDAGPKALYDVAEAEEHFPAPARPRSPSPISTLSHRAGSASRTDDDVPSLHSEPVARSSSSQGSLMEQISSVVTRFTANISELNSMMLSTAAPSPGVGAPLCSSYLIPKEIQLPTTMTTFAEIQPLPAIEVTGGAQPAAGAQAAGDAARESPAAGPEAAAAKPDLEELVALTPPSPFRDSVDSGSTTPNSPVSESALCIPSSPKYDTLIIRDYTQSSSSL

[9] = biological target: Metabotropic glutamate receptor 1 (Homo sapiens) (UniProt Q13255); experiment: Positive allosteric modulation of mGluR1
[10] = biological target: Voltage-gated inwardly rectifying potassium channel KCNH2 (Homo sapiens, UniProt Q12809); experiment: Inhibition of human ERG
[11] = Ratio of AUC in Sprague-Dawley rat brain at 10 mg/kg, ip to AUC in Sprague-Dawley rat plasma at 10 mg/kg, ip; assay type: ADME, organism-based; settings: brain and plasma, read-out: Ratio AUC
[12] = as §1; assay type: ADME, cell-free
[13] = biological target: T1, Metabotropic glutamate receptor 5; experiment: Displacement of [3H]-methoxyPEPy from rat mGlu5 receptor expressed in HEK293 cells after 1 hr by scintillation counting analysis; assay type: cell-based
[14] = biological target: Metabotropic glutamate receptor 7 (Homo sapiens) (UniProt Q14831); experiment: Positive allosteric modulation of mGluR7
[15] = as §2; assay type: ADME, cell-free
[16] = biological target: T2, Metabotropic glutamate receptor 5; experiment: Positive allosteric modulation of human mGlu5 receptor expressed in HEK293 cells by fluorescence-based calcium flux assay; assay type: functional, cell-based
[17] = biological target: Metabotropic glutamate receptor 3 (Homo sapiens) (UniProt Q14832); experiment: Positive allosteric modulation of mGluR3
[18] = Inhibition of calcium channel
[19] = biological target: Metabotropic glutamate receptor 6 (Homo sapiens) (UniProt O15303); experiment: Positive allosteric modulation of mGluR6
[20] = biological target: Metabotropic glutamate receptor 8 (Homo sapiens) (UniProt O00222); experiment: Positive allosteric modulation of mGluR8
[21] = biological target: Metabotropic glutamate receptor 5 (Rattus norvegicus) (UniProt P31424); experiment: Displacement of [3H]-methoxyPEPy from rat mGlu5 receptor expressed in HEK293 cells up to 30 uM after 1 hr by scintillation counting analysis; assay type: cell-based

Chain of Metabotropic glutamate receptor 6 (Homo sapiens) (O15303 whole entry): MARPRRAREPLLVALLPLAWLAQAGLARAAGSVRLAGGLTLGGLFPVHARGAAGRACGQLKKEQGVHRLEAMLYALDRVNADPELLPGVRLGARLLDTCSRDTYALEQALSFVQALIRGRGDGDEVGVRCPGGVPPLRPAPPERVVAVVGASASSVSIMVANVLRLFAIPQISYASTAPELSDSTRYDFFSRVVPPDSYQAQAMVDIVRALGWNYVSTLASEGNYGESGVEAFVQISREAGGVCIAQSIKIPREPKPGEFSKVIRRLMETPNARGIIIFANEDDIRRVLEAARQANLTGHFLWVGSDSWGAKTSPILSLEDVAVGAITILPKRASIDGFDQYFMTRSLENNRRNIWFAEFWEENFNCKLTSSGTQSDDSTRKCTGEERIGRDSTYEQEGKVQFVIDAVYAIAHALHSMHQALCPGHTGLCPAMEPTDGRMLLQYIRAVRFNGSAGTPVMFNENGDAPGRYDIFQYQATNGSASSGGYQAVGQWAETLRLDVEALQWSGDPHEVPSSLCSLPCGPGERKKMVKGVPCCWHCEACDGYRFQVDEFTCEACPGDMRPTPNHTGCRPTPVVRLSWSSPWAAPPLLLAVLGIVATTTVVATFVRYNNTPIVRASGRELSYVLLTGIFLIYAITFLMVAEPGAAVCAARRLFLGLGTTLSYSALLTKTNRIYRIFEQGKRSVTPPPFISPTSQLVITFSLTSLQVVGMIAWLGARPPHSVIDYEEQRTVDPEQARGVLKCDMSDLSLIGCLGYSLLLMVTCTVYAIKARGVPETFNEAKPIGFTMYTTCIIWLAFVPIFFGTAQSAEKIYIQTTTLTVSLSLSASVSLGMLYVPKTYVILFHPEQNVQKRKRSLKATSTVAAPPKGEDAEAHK
Chain of Metabotropic glutamate receptor 1 (Homo sapiens) (Q13255 19-1194 limits assumed): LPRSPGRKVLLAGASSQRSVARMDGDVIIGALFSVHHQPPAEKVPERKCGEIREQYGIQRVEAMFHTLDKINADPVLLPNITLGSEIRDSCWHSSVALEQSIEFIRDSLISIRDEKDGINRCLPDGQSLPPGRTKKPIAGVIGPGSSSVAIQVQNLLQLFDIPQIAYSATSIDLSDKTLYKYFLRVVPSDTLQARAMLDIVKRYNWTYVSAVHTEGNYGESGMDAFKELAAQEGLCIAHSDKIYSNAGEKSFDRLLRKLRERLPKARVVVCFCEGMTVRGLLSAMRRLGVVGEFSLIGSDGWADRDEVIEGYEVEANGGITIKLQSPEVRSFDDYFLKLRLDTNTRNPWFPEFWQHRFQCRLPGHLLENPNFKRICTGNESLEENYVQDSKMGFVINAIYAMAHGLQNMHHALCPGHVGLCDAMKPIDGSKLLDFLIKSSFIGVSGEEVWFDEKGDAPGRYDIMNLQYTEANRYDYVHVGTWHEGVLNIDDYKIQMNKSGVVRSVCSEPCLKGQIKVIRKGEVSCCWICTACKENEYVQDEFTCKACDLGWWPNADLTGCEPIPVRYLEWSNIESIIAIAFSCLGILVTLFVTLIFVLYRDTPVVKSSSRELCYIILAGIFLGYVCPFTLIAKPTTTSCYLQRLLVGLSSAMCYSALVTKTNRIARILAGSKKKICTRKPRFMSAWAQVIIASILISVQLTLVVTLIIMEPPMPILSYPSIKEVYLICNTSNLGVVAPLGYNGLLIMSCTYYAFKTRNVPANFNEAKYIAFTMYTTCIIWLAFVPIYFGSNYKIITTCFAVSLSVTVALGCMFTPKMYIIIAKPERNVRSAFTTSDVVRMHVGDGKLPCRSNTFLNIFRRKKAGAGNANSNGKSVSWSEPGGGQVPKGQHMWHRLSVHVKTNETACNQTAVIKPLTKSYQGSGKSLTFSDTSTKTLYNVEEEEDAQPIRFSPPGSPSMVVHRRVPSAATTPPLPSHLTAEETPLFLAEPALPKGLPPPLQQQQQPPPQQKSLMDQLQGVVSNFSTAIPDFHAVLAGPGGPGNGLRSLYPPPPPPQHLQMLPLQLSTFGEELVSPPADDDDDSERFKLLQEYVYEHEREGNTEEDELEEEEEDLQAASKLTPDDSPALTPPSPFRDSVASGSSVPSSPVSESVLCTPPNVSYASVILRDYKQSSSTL
T1 sequence (P31424 whole entry): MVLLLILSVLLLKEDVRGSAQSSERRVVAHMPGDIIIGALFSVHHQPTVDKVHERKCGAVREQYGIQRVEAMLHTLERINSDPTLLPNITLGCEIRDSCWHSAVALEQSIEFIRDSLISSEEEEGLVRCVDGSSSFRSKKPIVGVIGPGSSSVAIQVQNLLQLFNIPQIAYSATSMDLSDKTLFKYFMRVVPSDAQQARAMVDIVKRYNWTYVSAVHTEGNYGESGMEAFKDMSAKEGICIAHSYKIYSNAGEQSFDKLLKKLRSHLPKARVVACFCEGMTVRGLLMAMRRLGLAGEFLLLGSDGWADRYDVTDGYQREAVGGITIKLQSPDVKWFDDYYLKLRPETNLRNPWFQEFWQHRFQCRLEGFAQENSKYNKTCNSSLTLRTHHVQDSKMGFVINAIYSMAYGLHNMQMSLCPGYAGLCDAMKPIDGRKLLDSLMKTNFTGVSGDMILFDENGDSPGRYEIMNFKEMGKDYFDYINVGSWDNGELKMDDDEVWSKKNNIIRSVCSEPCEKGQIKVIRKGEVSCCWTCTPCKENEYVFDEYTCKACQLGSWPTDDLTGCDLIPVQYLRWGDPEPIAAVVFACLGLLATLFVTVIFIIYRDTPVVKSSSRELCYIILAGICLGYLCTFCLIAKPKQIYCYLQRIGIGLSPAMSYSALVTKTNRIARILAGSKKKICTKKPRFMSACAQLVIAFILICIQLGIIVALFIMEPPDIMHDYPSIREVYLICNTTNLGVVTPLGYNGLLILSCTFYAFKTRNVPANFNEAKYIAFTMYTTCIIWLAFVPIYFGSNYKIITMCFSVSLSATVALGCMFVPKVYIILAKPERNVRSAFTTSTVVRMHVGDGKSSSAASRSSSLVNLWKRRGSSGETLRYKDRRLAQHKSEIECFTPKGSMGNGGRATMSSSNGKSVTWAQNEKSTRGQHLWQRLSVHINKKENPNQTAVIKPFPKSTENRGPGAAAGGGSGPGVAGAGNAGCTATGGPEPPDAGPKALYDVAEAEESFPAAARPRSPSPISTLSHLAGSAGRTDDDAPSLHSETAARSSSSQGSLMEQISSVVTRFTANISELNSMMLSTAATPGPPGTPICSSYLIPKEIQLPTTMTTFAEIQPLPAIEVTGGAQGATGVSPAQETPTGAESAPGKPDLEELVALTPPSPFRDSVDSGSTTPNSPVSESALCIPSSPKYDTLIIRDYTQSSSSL

Compound | Emax [1] [%] | EC50 [2] [µM] | Emax [8] [%] | EC50 ([16]; read-out: EC50) [µM] | also measured
O=C(Nc1ccc(Cl)cc1CN1C(=O)c2ccccc2C1=O)c1ccccc1O | – | – | – | – | Ratio EC50 (HEK293): 3
O=C(Nc1cccc(Cl)c1)[C@@H]1CCc2ccccc2N1S(=O)(=O)c1ccccc1F | 78 | 6.7 | – | – | –
CS(=O)(=O)N(CC(=O)Nc1ccc(F)cn1)c1ccccc1Cl | 66 | 3.72 | – | – | Stability (Liver microsomes): 39%; Fu (Plasma [3]): 0.17; Fu (Plasma [4]): 0.09
CCC(C(=O)Nc1cccc(Cl)c1)N(c1ccccc1Cl)S(C)(=O)=O (racemic) | – | 3.3 | – | – | –
CS(=O)(=O)N1c2ccccc2CCC1C(=O)Nc1ccccn1 (racemic) | 68 | 1.3 | – | – | –
CCCC(C(=O)Nc1cccc(Cl)c1)N(c1ccccc1Cl)S(C)(=O)=O (racemic) | – | > 10 | – | – | –
CS(=O)(=O)N(CC(=O)NCC1CC1)c1cc(C(F)(F)F)ccc1Cl | 61 | 0.398 | 70 | 4.5 | Activity [5]: > 10 µM; Activity [6]: > 10 µM; IC50 [7]: > 10 µM; Activity [9]: > 10 µM; IC50 [10]: > 10 µM; Kp [11]: 0.4; fraction unbound at 4 h, 5 µM [12]: 0.13; Ki [13]: > 30 µM; Activity [14]: > 10 µM; fraction unbound at 4 h, 5 µM [15]: 0.1; Activity [17]: > 10 µM; IC50 [18]: > 10 µM; Activity [19]: > 10 µM; Activity [20]: > 10 µM
CS(=O)(=O)N(CC(=O)Nc1cccnc1F)c1ccccc1Cl | 64 | 1.74 | 42 | > 10 | pEC50 ([16]; hek293): < 5
Cn1cnc(S(=O)(=O)N2c3ccccc3CCC2C(=O)Nc2cccc(Cl)c2)c1 (racemic) | 75 | > 10 | – | – | –
O=S(=O)(c1ccc(C#Cc2cccc(F)c2)cc1)N1CCOCC1 | 55 | 0.457 | – | – | Activity [21]: inactive; EC50 ([16]; hek293): Not Active
O=S(=O)(c1ccc(F)cc1)N1CCC[C@H](c2nc(-c3ccc(F)cc3)no2)C1 | 84 | 3.4 | 43 | > 10 | Activity [21]: inactive
CS(=O)(=O)N1c2ccccc2CCC1C(=O)Nc1cccc(Cl)c1 (racemic) | 60 | 1 | – | – | –
CS(=O)(=O)N(CC(=O)Nc1cccc(Cl)c1)c1ccccc1Cl | 74 | 0.08 | 63 | 0.78 | Activity [5]: > 10 µM; Activity [6]: > 10 µM; Activity [9]: > 10 µM; Ki [13]: > 10 µM; Ratio EC50 (HEK293): 10; Activity [14]: > 10 µM; Activity [17]: > 10 µM; Activity [19]: > 10 µM; Activity [20]: > 10 µM
CS(=O)(=O)N(CC(=O)Nc1ccc(F)nc1)c1ccccc1Cl | 72 | 4.47 | 35 | > 10 | pEC50 ([16]; hek293): < 5
CC(C(=O)Nc1cccc(Cl)c1)N(c1ccccc1Cl)S(C)(=O)=O (racemic) | 43 | 0.068 | – | – | –
CS(=O)(=O)N(CC(=O)Nc1ccccc1)c1ccccc1Cl | 61 | 0.07 | 77 | 1.38 | Activity [5]: > 10 µM; Activity [6]: > 10 µM; Stability (Liver microsomes): <= 4%; Activity [9]: > 10 µM; Fu (Plasma [3]): 0.13; Ki [13]: > 10 µM; Activity [14]: > 10 µM; Activity [17]: > 10 µM; Activity [19]: > 10 µM
CCS(=O)(=O)N1c2ccccc2CC[C@H]1C(=O)Nc1cccc(Cl)c1 | 74 | 2.5 | – | – | –

Source: ChEMBL document CHEMBL2203047, “Discovery and SAR of a novel series of non-MPEP site mGlu₅ PAMs based on an aryl glycine sulfonamide scaffold” (Bioorg Med Chem Lett, 2012)
